Read-outs that look alike come from different tables or passages of the source.
What was measured:
[1] = system: CCD1079SK (fibroblast, noncancerous but proliferating); test: CIMA assay, cell viability, CCD1079SK; details: CCD
[2] = CIMA assay, cell viability, CCD1079SK; details: human, Average cell viability, CCD
[3] = system: SKOV3 (ovarian adenocarcinoma); test: CIMA assay, cell viability, SKOV3; details: for Fold change in viability AVG: SKOV
MDA-MB [4] = test: cells; details: Homo sapiens, read-out: Average cell viability, MDA-MB
MDA-MB [5] = details: MDA-MB
[6] = system: THP-1 (acute monocytic leukemia); test: CIMA assay, cell viability, THP-1; details: for Fold change in viability AVG: THP-1
PC3 = test: CIMA assay, cell viability, PC3; details: for Fold change in viability AVG: PC3
[7] = system: U373 (glioblastoma-astrocytoma); test: CIMA assay, cell viability, U373; details: for Fold change in viability AVG: U373
Description: Stock solutions of the extracts were prepared in dimethylsulfoxide (DMSO) at 10 mg/mL and stored in 200 μl aliquots at −20° C. until analysis. This preparation ensured that the DMSO delivered to cells in culture never exceeded 1%.
Prepared extracts were assessed following chronic exposure conditions in which cells were seeded at 2×10^3 cells/well (96 well-plate) and incubated with test compounds for 72 h. Each compound was evaluated over a range of concentrations (0, 10, 25, 50 or 100 μg/ml). Cell proliferation was initially assessed using a standard colorimetric indicator of metabolic activity (CIMA) assay. In this assay, tetrazole reduction was evaluated as a measure of metabolic function that evaluates mitochondrial activity to determine the extent of cell proliferation within a culture. This assay is based on the reduction of yellow tetrazolium salt to purple formazan by mitochondrial reductases enzyme in viable cells, resulting in a color changed that confers a change in absorbance.

A549 (lung carcinoma) = test: CIMA assay (colorimetric indicator of metabolic activity), cell viability, A549; details: for Fold change in viability AVG: A549

CC/C=C\C/C=C\C/C=C\C/C=C\C/C=C\CCCC(=O)OCC(O)COC1OC(CO)C(O)C(O)C1O (stereo not shown) [Compound 13, lyso-MGDG C20:5]
Fold change in viability AVG ([1]; 1 ug/mL): 1.13
Fold change in viability AVG ([1]; 10 ug/mL): 1.09
Fold change in viability AVG ([1]; 50 ug/mL): 0.24
Fold change in viability AVG ([1]; 100 ug/mL): 0.15
viability at 72 h, 1 ug/mL ([2]; CCD1079SK fibroblast cells (noncancerous, proliferating), 1 ug/mL): 103%
viability at 72 h, 10 ug/mL ([2]; CCD1079SK fibroblasts (noncancerous, proliferating), 10 ug/mL): 99%
viability at 72 h, 50 ug/mL ([2]; CCD1079SK fibroblasts (noncancerous, proliferating), 50 ug/mL): 22%
viability at 72 h, 100 ug/mL ([2]; CCD1079SK fibroblasts (noncancerous, proliferating), 100 ug/mL): 14%
viability at 1 µg/mL ([3]; Homo sapiens, SK-OV-3, read-out: Average cell viability, SKOV, 1 ug/mL): 125%
viability at 10 µg/mL ([3]; Homo sapiens, SK-OV-3, read-out: Average cell viability, SKOV, 10 ug/mL): 105%
viability at 50 µg/mL ([3]; Homo sapiens, SK-OV-3, read-out: Average cell viability, SKOV, 50 ug/mL): 78%
viability at 100 µg/mL ([3]; Homo sapiens, SK-OV-3, read-out: Average cell viability, SKOV, 100 ug/mL): 34%
Fold change in viability AVG ([3]; 1 ug/mL): 1.34
Fold change in viability AVG ([3]; 10 ug/mL): 1.13
Fold change in viability AVG ([3]; 50 ug/mL): 0.84
Fold change in viability AVG ([3]; 100 ug/mL): 0.37
viability at 1 µg/mL (MDA-MB [4]; 1 ug/mL): 102%
viability at 10 µg/mL (MDA-MB [4]; 10 ug/mL): 105%
viability at 50 µg/mL (MDA-MB [4]; 50 ug/mL): 30%
viability at 100 µg/mL (MDA-MB [4]; 100 ug/mL): 25%
MDA-MB AVG (MDA-MB [5]; sample at 1 ug/mL): 1.11
MDA-MB AVG (MDA-MB [5]; sample at 10 ug/mL): 1.14
MDA-MB AVG (MDA-MB [5]; sample at 50 ug/mL): 0.33
MDA-MB AVG (MDA-MB [5]; sample at 100 ug/mL): 0.28
Fold change in viability AVG (MDA-MB [5]; 1 ug/mL): 1.11
Fold change in viability AVG (MDA-MB [5]; 10 ug/mL): 1.14
Fold change in viability AVG (MDA-MB [5]; 50 ug/mL): 0.33
Fold change in viability AVG (MDA-MB [5]; 100 ug/mL): 0.28
viability at 1 µg/mL ([6]; Homo sapiens, THP-1, read-out: Average cell viability, THP-1, 1 ug/mL): 104%
viability at 10 µg/mL ([6]; Homo sapiens, THP-1, read-out: Average cell viability, THP-1, 10 ug/mL): 101%
viability at 50 µg/mL ([6]; Homo sapiens, THP-1, read-out: Average cell viability, THP-1, 50 ug/mL): 40%
viability at 100 µg/mL ([6]; Homo sapiens, THP-1, read-out: Average cell viability, THP-1, 100 ug/mL): 27%
THP-1 AVG ([6]; THP-1, sample at 1 ug/mL): 1.19
THP-1 AVG ([6]; THP-1, sample at 10 ug/mL): 1.14
THP-1 AVG ([6]; THP-1, sample at 50 ug/mL): 0.46
THP-1 AVG ([6]; THP-1, sample at 100 ug/mL): 0.31
Fold change in viability AVG ([6]; 1 ug/mL): 1.19
Fold change in viability AVG ([6]; 10 ug/mL): 1.14
Fold change in viability AVG ([6]; 50 ug/mL): 0.46
Fold change in viability AVG ([6]; 100 ug/mL): 0.31
viability at 1 µg/mL (PC3; Homo sapiens, PC-3, read-out: Average cell viability, PC3, 1 ug/mL): 104%
viability at 10 µg/mL (PC3; Homo sapiens, PC-3, read-out: Average cell viability, PC3, 10 ug/mL): 97%
viability at 50 µg/mL (PC3; Homo sapiens, PC-3, read-out: Average cell viability, PC3, 50 ug/mL): 16%
viability at 100 µg/mL (PC3; Homo sapiens, PC-3, read-out: Average cell viability, PC3, 100 ug/mL): 12%
PC3 AVG (PC3; PC3, sample at 1 ug/mL): 1.08
PC3 AVG (PC3; PC3, sample at 10 ug/mL): 1.01
PC3 AVG (PC3; PC3, sample at 50 ug/mL): 0.16
PC3 AVG (PC3; PC3, sample at 100 ug/mL): 0.12
Fold change in viability AVG (PC3; 1 ug/mL): 1.08
Fold change in viability AVG (PC3; 10 ug/mL): 1.01
Fold change in viability AVG (PC3; 50 ug/mL): 0.16
Fold change in viability AVG (PC3; 100 ug/mL): 0.12
viability at 1 µg/mL ([7]; Homo sapiens, U373 MG, read-out: Average cell viability, U373, 1 ug/mL): 111%
viability at 10 µg/mL ([7]; Homo sapiens, U373 MG, read-out: Average cell viability, U373, 10 ug/mL): 100%
viability at 50 µg/mL ([7]; Homo sapiens, U373 MG, read-out: Average cell viability, U373, 50 ug/mL): 7%
viability at 100 µg/mL ([7]; Homo sapiens, U373 MG, read-out: Average cell viability, U373, 100 ug/mL): 6%
U373 AVG ([7]; U373, sample at 1 ug/mL): 1.13
U373 AVG ([7]; U373, sample at 10 ug/mL): 1.02
U373 AVG ([7]; U373, sample at 50 ug/mL): 0.07
U373 AVG ([7]; U373, sample at 100 ug/mL): 0.06
Fold change in viability AVG ([7]; 1 ug/mL): 1.13
Fold change in viability AVG ([7]; 10 ug/mL): 1.02
Fold change in viability AVG ([7]; 50 ug/mL): 0.07
Fold change in viability AVG ([7]; 100 ug/mL): 0.06
A549 AVG (A549 (lung carcinoma); A549, sample at 1 ug/mL): 0.67
A549 AVG (A549 (lung carcinoma); A549, sample at 10 ug/mL): 0.64
A549 AVG (A549 (lung carcinoma); A549, sample at 50 ug/mL): 0.67
A549 AVG (A549 (lung carcinoma); A549, sample at 100 ug/mL): 0.38
Fold change in viability AVG (A549 (lung carcinoma); 1 ug/mL): 0.67
Fold change in viability AVG (A549 (lung carcinoma); 10 ug/mL): 0.64
Fold change in viability AVG (A549 (lung carcinoma); 50 ug/mL): 0.67
Fold change in viability AVG (A549 (lung carcinoma); 100 ug/mL): 0.38
viability at 1 µg/mL (A549 (lung carcinoma); Homo sapiens, A549, read-out: Average cell viability, A549, 1 ug/mL): 57%
viability at 10 µg/mL (A549 (lung carcinoma); Homo sapiens, A549, read-out: Average cell viability, A549, 10 ug/mL): 55%
viability at 50 µg/mL (A549 (lung carcinoma); Homo sapiens, A549, read-out: Average cell viability, A549, 50 ug/mL): 57%
viability at 100 µg/mL (A549 (lung carcinoma); Homo sapiens, A549, read-out: Average cell viability, A549, 100 ug/mL): 32%

Reference: US11292807B2 (OCEANS LTD., priority 2015, dated 2022)
